≈ marks a conversion by molar mass, not a printed value. Calls of active or inactive are those of the source. The calls are words filed in the database; no cut-off is given here.
Tests used:
[1] = Cytotoxicity against African green monkey Vero cells assessed as cell survival at 10 times MIC after 72 hrs by MTT assay; type: cell-based; conditions: chlorocebus sabaeus, read-out: Survival
[2] = tested on: Mycobacterium tuberculosis; assay: Antitubercular activity against Mycobacterium tuberculosis H37Rv ATCC 27294 after 5 days by microplate Alamar Blue assay; type: functional; conditions: H37Rv ATCC 27294, 120 h
[3] = tested on: Mycobacterium tuberculosis; assay: Antitubercular activity against Mycobacterium tuberculosis H37Rv ATCC 27294 at 6.25 ug/ml after 5 days by microplate Alamar Blue assay; type: functional; conditions: H37Rv ATCC 27294, 120 h
[4] = organism: Bos taurus; assay: Induction of DNA cleavage in calf thymus DNA at 10 ug after 2 hrs by agarose gel electrophoresis method

Row | SMILES | viability at 72 h, 10 times MIC [1] [%] | MIC [2] [µg/mL] | inhibition at 6.25 µg/mL [3] [%] | Activity [4]
1 | COc1ccccc1-c1cc(-c2cc3c(ccc4ccccc43)oc2=O)nc(Cc2ccc(F)cc2)n1 | 91 | 0.78 (≈ 1.6 µM) | 98 | 
2 | O=c1oc2ccc3ccccc3c2cc1-c1cc(-c2ccc([N+](=O)[O-])cc2)nc(Cc2ccc(F)cc2)n1 | 39 | 2.81 (≈ 5.58 µM) | 95 | 
3 | O=c1oc2ccc3ccccc3c2cc1-c1cc(-c2ccccc2[N+](=O)[O-])nc(Cc2ccc(F)cc2)n1 | 17 | 6.25 (≈ 12.4 µM) | 90 | 
4 | COc1ccc(-c2cc(-c3cc4c(ccc5ccccc54)oc3=O)nc(Cc3ccc(F)cc3)n2)cc1 | 97 | 0.05 (≈ 0.102 µM) | 100 | Active
5 | Cc1cccc(-c2cc(-c3cc4c(ccc5ccccc54)oc3=O)nc(Cc3ccc(F)cc3)n2)c1 |  |  | 76 | 
6 | COc1cccc(-c2cc(-c3cc4c(ccc5ccccc54)oc3=O)nc(Cc3ccc(F)cc3)n2)c1 | 93 | 0.19 (≈ 0.389 µM) | 100 | 
7 | O=c1oc2ccc3ccccc3c2cc1-c1cc(-c2cccc(Cl)c2)nc(Cc2ccc(F)cc2)n1 | 75 | 1.56 (≈ 3.16 µM) | 93 | Active
8 | Cc1ccccc1-c1cc(-c2cc3c(ccc4ccccc43)oc2=O)nc(Cc2ccc(F)cc2)n1 |  |  | 73 | 
9 | Cc1ccc(-c2cc(-c3cc4c(ccc5ccccc54)oc3=O)nc(Cc3ccc(F)cc3)n2)cc1 |  |  | 81 | 
10 | O=c1oc2ccc3ccccc3c2cc1-c1cc(-c2ccccc2Br)nc(Cc2ccc(F)cc2)n1 |  |  | 77 | 
11 | O=c1oc2ccc3ccccc3c2cc1-c1cc(-c2ccc(Br)cc2)nc(Cc2ccc(F)cc2)n1 | 72 | 1.56 (≈ 2.9 µM) | 96 | Active
12 | O=c1oc2ccc3ccccc3c2cc1-c1cc(-c2cccc(Br)c2)nc(Cc2ccc(F)cc2)n1 | 64 | 2.81 (≈ 5.23 µM) | 93 | 
13 | NNC(=O)c1ccncc1 [ISONIAZID] | 100 | 0.02 (≈ 0.146 µM) | 100 | 
14 | O=c1oc2ccc3ccccc3c2cc1-c1cc(-c2ccccc2Cl)nc(Cc2ccc(F)cc2)n1 |  |  | 75 | 
15 | O=c1oc2ccc3ccccc3c2cc1-c1cc(-c2ccc(Cl)cc2)nc(Cc2ccc(F)cc2)n1 | 79 | 1.21 (≈ 2.45 µM) | 96 | 
16 | O=c1oc2ccc3ccccc3c2cc1-c1cc(-c2cccc([N+](=O)[O-])c2)nc(Cc2ccc(F)cc2)n1 | 26 | 3.12 (≈ 6.2 µM) | 91 | Active

From ChEMBL document CHEMBL3611980, “Design, synthesis of benzocoumarin-pyrimidine hybrids as novel class of antitubercular agents, their DNA cleavage and X-ray studies” (Eur J Med Chem, 2015)
